From EPA's CvTdb concentration-time database (doi:10.1093/toxsci/kfy020)

Columns and labels:
Test in all cases: concentration in plasma after dosing
rat [1] = conditions: dosed: 2,4-D, 0.20467 mg/kg, iv, male, Sprague-Dawley
rat [2] = conditions: dosed: 2,4-D, 1.043 mg/kg, oral, male, Sprague-Dawley
rat [3] = conditions: dosed: 2,4-D, 1.043 mg/kg, oral, male, Sprague-Dawley; remark: listed apart in the source
rat [4] = conditions: male, Sprague-Dawley
rat [5] = conditions: dosed: 2,4-D, 0.20467 mg/kg, iv, male, Sprague-Dawley; remark: listed apart in the source
rat [6] = conditions: dosed: Boscalid, 5.0000000000 mg/kg, oral, male, Sprague-Dawley
rat [7] = conditions: dosed: Boscalid, 1.0000000000 mg/kg, iv, male, Sprague-Dawley
rat [8] = conditions: dosed: Boscalid, 1.0000000000 mg/kg, iv, male, Sprague-Dawley; remark: listed apart in the source
rat [9] = conditions: dosed: Boscalid, 5.0000000000 mg/kg, oral, male, Sprague-Dawley; remark: listed apart in the source
rat [10] = conditions: dosed: Boscalid, 5.0000000000 mg/kg, oral, male, Sprague-Dawley; remark: listed apart in the source
rat [11] = conditions: dosed: Cyclanilide, 1.0000000000 mg/kg, oral, male, Sprague-Dawley
rat [12] = conditions: dosed: Cyclanilide, 1.0000000000 mg/kg, oral, male, Sprague-Dawley; remark: listed apart in the source
rat [13] = conditions: dosed: Cyclanilide, 0.2000000000 mg/kg, iv, male, Sprague-Dawley
rat [14] = conditions: dosed: Cyclanilide, 0.2000000000 mg/kg, iv, male, Sprague-Dawley; remark: listed apart in the source
rat [15] = conditions: dosed: Cyclanilide, 1.0000000000 mg/kg, oral, male, Sprague-Dawley; remark: listed apart in the source
rat [16] = conditions: dosed: Cyclanilide, 0.2000000000 mg/kg, iv, male, Sprague-Dawley; remark: listed apart in the source

O=C(O)COc1ccc(Cl)cc1Cl [2,4-D]
concentration in plasma [ng/mL]
Conditions | 0.167 h | 0.25 h | 0.5 h | 1 h | 2 h | 4 h | 5 min | 8 h | 24 h
rat [1] | 250 | – | 79.7 | 32.3 | 30.8 | 7.75 | 461 | – | –
rat [2] | – | 1200 | 690 | 417 | 764 | 743 | – | 402 | –
rat [3] | – | 1440 | 1240 | 816 | 858 | 688 | – | 504 | 0.48
rat [5] | 616 | – | 219 | 75.8 | 9.23 | 0.324 | 911 | – | –

concentration in plasma [ng/mL], rat [4], dosed: 2,4-D
Conditions | 0.167 h | 0.25 h | 0.5 h | 1 h | 2 h | 4 h | 5 min | 8 h | 24 h
0.20467 mg/kg, iv | 466 | – | 192 | 71.5 | 22 | 1.84 | 710 | – | –
1.043 mg/kg, oral | – | 1030 | 1030 | 566 | 492 | 154 | – | 412 | 0.0594

O=C(Nc1ccccc1-c1ccc(Cl)cc1)c1cccnc1Cl [Boscalid]
concentration in plasma [ng/mL]
Conditions | 0.25 h | 0.5 h | 1 h | 2 h | 4 h | 5 min | 8 h | 10 min | 12 h
rat [6] | 30.5 | 43.1 | 31.9 | 11.5 | 8.5 | – | 16.1 | – | 21.1
rat [7] | – | 146 | 71.5 | 28.4 | 10.8 | 516 | – | 325 | –
rat [8] | – | 100 | 57.6 | 23.1 | 12.5 | 366 | 6.72 | 262 | –
rat [9] | 29.9 | 36.8 | 18.6 | 14.1 | 5.5 | – | – | – | 8.6
rat [10] | 16.7 | 22.5 | 28.9 | 30.9 | 20.2 | – | 22.3 | – | 10.1

concentration in plasma [ng/mL], rat [4], dosed: Boscalid
Conditions | 0.25 h | 0.5 h | 1 h | 2 h | 4 h | 5 min | 8 h | 10 min | 12 h
1.0000000000 mg/kg, iv | – | 131 | 78 | 29.4 | 9.3 | 418 | – | 293 | –
5.0000000000 mg/kg, oral | 47.3 | 81.4 | 65.2 | 24.6 | 13.6 | – | 15.9 | – | 7.5

O=C(O)C1(C(=O)Nc2ccc(Cl)cc2Cl)CC1 [Cyclanilide]
concentration in plasma [ng/mL]
Conditions | rat [11] | rat [12] | rat [13] | rat [14] | rat [15] | rat [16]
0.25 h | 869 | 1140 | – | – | 100 | –
0.5 h | 1060 | 646 | 727 | 972 | 1120 | 1000
1 h | 808 | 801 | 910 | 639 | 1210 | 744
2 h | 575 | 568 | 416 | 475 | 918 | 364
4 h | 482 | 464 | 262 | 251 | 827 | 222
5 min | – | – | 1560 | 1730 | – | 1520
8 h | 200 | 336 | 81.1 | 77 | 507 | 71.9
10 min | – | – | 1400 | 2250 | – | 1200
12 h | 184 | 284 | 98.9 | 65.7 | 293 | 68.8
24 h | 39.6 | 18.7 | 6.5 | 8 | 101 | 7.7
48 h | – | 1.5 | 0.8 | 2.1 | 1.3 | 3.1
72 h | – | 1.3 | 1.2 | 1.7 | 1.2 | –

rat [4], dosed: Cyclanilide
Conditions | concentration in plasma [ng/mL]
0.25 h, 1.0000000000 mg/kg, oral | 1720
0.5 h, 0.2000000000 mg/kg, iv | 1140
0.5 h, 1.0000000000 mg/kg, oral | 1470
1 h, 0.2000000000 mg/kg, iv | 982
1 h, 1.0000000000 mg/kg, oral | 1150
2 h, 0.2000000000 mg/kg, iv | 553
2 h, 1.0000000000 mg/kg, oral | 780
4 h, 0.2000000000 mg/kg, iv | 412
4 h, 1.0000000000 mg/kg, oral | 518
5 min, 0.2000000000 mg/kg, iv | 1960
8 h, 0.2000000000 mg/kg, iv | 156
8 h, 1.0000000000 mg/kg, oral | 617
10 min, 0.2000000000 mg/kg, iv | 1780
12 h, 0.2000000000 mg/kg, iv | 84.1
12 h, 1.0000000000 mg/kg, oral | 234
24 h, 0.2000000000 mg/kg, iv | 28.9
24 h, 1.0000000000 mg/kg, oral | 24.9
48 h, 0.2000000000 mg/kg, iv | 2.5
48 h, 1.0000000000 mg/kg, oral | 1
72 h, 0.2000000000 mg/kg, iv | 3.2
72 h, 1.0000000000 mg/kg, oral | 1.5
